Results published in ChEMBL document CHEMBL1201862, “PubChem BioAssay data set” (2004).
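Growth conditions: 96-well plates. Treatment: test compound, 48 hours, 5 concentrations. Analysis: linear interpolation between bracketing concentrations; unreached endpoints set to highest concentration. Here, GI50 denotes the concentration required for 50% inhibition of growth.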 Active and inactive are the calls of the source. Rule as the data show it: active = GI50 up to about 1.1 µM and inactive = higher.

Assays:
Assay in all cases: NCI anticancer screen, dose series, 48 h
786-0 = system: 786-0
A498 = system: A498
A549 = system: A549
ACHN = system: ACHN
CAKI-1 = system: CAKI-1
CCRF-CEM = system: CCRF-CEM
COLO 205 = system: COLO 205
DLD-1 = system: DLD-1
DMS-273 = system: DMS-273
EKVX = system: EKVX
HCC 2998 = system: HCC 2998
HCT-15 = system: HCT-15
HL-60 = system: HL-60
HOP-62 = system: HOP-62
HOP-92 = system: HOP-92
HT-29 = system: HT-29
IGROV-1 = system: IGROV-1
K562 = system: K562
KM12 = system: KM12
LOX IMVI = system: LOX IMVI
LXFL 529 = system: LXFL 529
M14 = system: M14
M19-MEL = system: M19-MEL
MOLT-4 = system: MOLT-4
Malme-3M = system: Malme-3M
NCI-H226 = system: NCI-H226
NCI-H23 = system: NCI-H23
NCI-H460 = system: NCI-H460
NCI-H522 = system: NCI-H522
OVCAR-3 = system: OVCAR-3
OVCAR-4 = system: OVCAR-4
OVCAR-5 = system: OVCAR-5
OVCAR-8 = system: OVCAR-8
RPMI-8226 = system: RPMI-8226
RXF 393 = system: RXF 393
RXF 631 = system: RXF 631
SF-268 = system: SF-268
SF-295 = system: SF-295
SF-539 = system: SF-539
SK-MEL-28 = system: SK-MEL-28
SK-MEL-2 = system: SK-MEL-2
SK-MEL-5 = system: SK-MEL-5
SK-OV-3 = system: SK-OV-3
SNB-19 = system: SNB-19
SNB-75 = system: SNB-75
SNB-78 = system: SNB-78
SR = system: SR
SW-620 = system: SW-620
TK-10 = system: TK-10
U-251 = system: U-251
UACC-62 = system: UACC-62
UO-31 = system: UO-31
XF498 = system: XF498

Question: With COC1=C(C)C(=O)C2C(C1=O)C(c1ccc(OC)c(OC)c1)[C@H]2C (stereo partly drawn) as the compound, how does the GI50 (786-0) read?
Answer: > 100 µM (inactive)

Question: And the GI50 (A498)?
Answer: > 100 µM (inactive)

Question: What about the GI50 (A549) of the same compound?
Answer: > 100 µM (inactive)

Question: What about the GI50 (ACHN) of the same compound?
Answer: > 100 µM (inactive)

Question: What about the GI50 (CAKI-1) of the same compound?
Answer: > 100 µM (inactive)

Question: What about the GI50 (CCRF-CEM) of the same compound?
Answer: > 100 µM (inactive)

Question: And the GI50 (COLO 205)?
Answer: > 100 µM (inactive)

Question: And the GI50 (DLD-1)?
Answer: > 100 µM (inactive)

Question: What about the GI50 (DMS-273) of the same compound?
Answer: > 100 µM (inactive)

Question: And the GI50 (EKVX)?
Answer: > 100 µM (inactive)

Question: What about the GI50 (HCC 2998) of the same compound?
Answer: > 100 µM (inactive)

Question: What about the GI50 (HCT-15) of the same compound?
Answer: > 100 µM

Question: What about the GI50 (HL-60) of the same compound?
Answer: > 100 µM (inactive)

Question: What about the GI50 (HOP-62) of the same compound?
Answer: > 100 µM (inactive)

Question: What about the GI50 (HOP-92) of the same compound?
Answer: > 100 µM (inactive)

Question: And the GI50 (HT-29)?
Answer: > 100 µM (inactive)

Question: And the GI50 (IGROV-1)?
Answer: > 100 µM (inactive)

Question: And the GI50 (K562)?
Answer: > 100 µM (inactive)

Question: What about the GI50 (KM12) of the same compound?
Answer: > 100 µM (inactive)

Question: And the GI50 (LOX IMVI)?
Answer: > 100 µM (inactive)

Question: And the GI50 (LXFL 529)?
Answer: > 100 µM (inactive)

Question: What about the GI50 (M14) of the same compound?
Answer: > 100 µM (inactive)

Question: What about the GI50 (M19-MEL) of the same compound?
Answer: > 100 µM (inactive)

Question: What about the GI50 (MOLT-4) of the same compound?
Answer: > 100 µM (inactive)

Question: And the GI50 (Malme-3M)?
Answer: > 100 µM (inactive)

Question: What about the GI50 (NCI-H226) of the same compound?
Answer: > 100 µM (inactive)

Question: And the GI50 (NCI-H23)?
Answer: > 100 µM (inactive)

Question: And the GI50 (NCI-H460)?
Answer: > 100 µM (inactive)

Question: And the GI50 (NCI-H522)?
Answer: > 100 µM (inactive)

Question: And the GI50 (OVCAR-3)?
Answer: > 100 µM (inactive)

Question: And the GI50 (OVCAR-4)?
Answer: > 100 µM (inactive)

Question: What about the GI50 (OVCAR-5) of the same compound?
Answer: > 100 µM (inactive)

Question: What about the GI50 (OVCAR-8) of the same compound?
Answer: > 100 µM (inactive)

Question: And the GI50 (RPMI-8226)?
Answer: > 100 µM (inactive)

Question: What about the GI50 (RXF 393) of the same compound?
Answer: > 100 µM (inactive)

Question: What about the GI50 (RXF 631) of the same compound?
Answer: > 100 µM (inactive)

Question: And the GI50 (SF-268)?
Answer: > 100 µM (inactive)

Question: And the GI50 (SF-295)?
Answer: > 100 µM (inactive)

Question: And the GI50 (SF-539)?
Answer: > 100 µM (inactive)

Question: What about the GI50 (SK-MEL-28) of the same compound?
Answer: > 100 µM (inactive)

Question: And the GI50 (SK-MEL-2)?
Answer: > 100 µM (inactive)

Question: What about the GI50 (SK-MEL-5) of the same compound?
Answer: > 100 µM (inactive)

Question: And the GI50 (SK-OV-3)?
Answer: > 100 µM (inactive)

Question: What about the GI50 (SNB-19) of the same compound?
Answer: > 100 µM (inactive)

Question: And the GI50 (SNB-75)?
Answer: 72.8 µM (inactive)

Question: What about the GI50 (SNB-78) of the same compound?
Answer: > 100 µM (inactive)

Question: And the GI50 (SR)?
Answer: > 100 µM (inactive)

Question: What about the GI50 (SW-620) of the same compound?
Answer: > 100 µM (inactive)

Question: What about the GI50 (TK-10) of the same compound?
Answer: > 100 µM (inactive)

Question: And the GI50 (U-251)?
Answer: > 100 µM (inactive)

Question: What about the GI50 (UACC-62) of the same compound?
Answer: > 100 µM (inactive)

Question: And the GI50 (UO-31)?
Answer: 61.1 µM (inactive)

Question: And the GI50 (XF498)?
Answer: > 100 µM (inactive)
